Test results from PMC11494293, “Biochemical and structural insights into a 5’ to 3’ RNA ligase reveal a potential role in tRNA ligation” (Proceedings of the National Academy of Sciences of the …, 2024).

Molecular target: T1, YspRLIG1 (Yasminevirus RLIG1) (Yasminevirus sp. GU-2018, UniProt A0A5K0UB63)
T1 construct: gene YASMINEVIRUS_1364; minimal RNA ligase (NTase) fold; active-site Lys73
T1 sequence (A0A5K0UB63 1-276): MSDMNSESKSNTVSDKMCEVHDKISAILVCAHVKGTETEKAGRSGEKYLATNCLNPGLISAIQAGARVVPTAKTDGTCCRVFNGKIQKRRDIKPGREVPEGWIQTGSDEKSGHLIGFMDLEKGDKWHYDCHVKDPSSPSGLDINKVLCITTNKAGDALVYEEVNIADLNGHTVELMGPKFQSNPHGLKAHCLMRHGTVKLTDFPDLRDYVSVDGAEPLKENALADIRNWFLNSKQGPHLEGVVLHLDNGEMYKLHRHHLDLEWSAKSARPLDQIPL
Assay: X-ray crystal structure
Format: binding
Conditions: crystallised in the presence of ATP, active site, either AMP or ADP modelled

| SMILES | X-ray crystal structure | X-ray crystal structure (WT protein adenylated) |
| --- | --- | --- |
| Nc1ncnc2c1ncn2[C@@H]1O[C@H](COP(=O)(O)OP(=O)(O)O)[C@@H](O)[C@H]1O [ADP] | In the ADP-bound YspRLIG1^WT structure, the O5-Pα bond is rotated |  |
| Nc1ncnc2c1ncn2[C@@H]1O[C@H](COP(=O)(O)O)[C@@H](O)[C@H]1O [AMP] |  | In the WT structure, either AMP or ADP was modeled in the active site |
